The source of these data is ChEMBL document CHEMBL5104178, “Nitroimidazopyrazinones with Oral Activity against Tuberculosis and Chagas Disease in Mouse Models of Infection” (J Med Chem, 2022).

Each structure is given as a SMILES string.

In series [1] the test system is Trypanosoma cruzi. As to the kind of experiment: Antitrypanosomal activity against Trypanosoma cruzi Tulahuen amastigotes infected in mouse 3T3 cells assessed as inhibition of parasite growth incubated for 48 hrs by […] staining based analysis. Format: functional, organism-based.
The subject of series [2] is Trypanosoma cruzi. As to the kind of experiment: Antitrypanosomal activity against Trypanosoma cruzi Tulahuen amastigotes infected in mouse 3T3 cells assessed as reduction in parasite growth at Emax concentration incubated for 48 hrs by […] staining based analysis. Also on record: scale not given: the % may be the effect or the level left. Type of series: functional.

Series [3] is described as follows: Cytotoxicity against mouse 3T3 cells. Format: toxicity, cell-based. The following applies: NIH3T3 cells.
The nature of series [4]: Selectivity index, ratio of CC50 for cytotoxicity against mouse 3T3 cells to IC50 for antitrypanosomal activity against Trypanosoma cruzi Tulahuen amastigotes infected in mouse 3T3 cells. The following applies: read-out: Ratio CC50/IC50. Type of series: toxicity, cell-based.
For series [5], the system named is Trypanosoma cruzi. As to the kind of experiment: Antitrypanosomal activity against bioluminescent Trypanosoma cruzi CL Brener trypomastigotes infected in BALB/c mouse assessed as reduction in parasite burden at 100 mg/kg, po administered once daily for 5 days starting from 14 days post infection and measured on 36 days post infection. Type of series: functional. Also on record: scale not given: the % may be the effect or the level left. The following applies: time 22 day.

Series [6] is described as follows: Cmax in CD-1 mouse at 20 mg/kg, po administered as DMSO/PEG400 formulation measured upto 24 hrs by LC-MS/MS analysis. To be noted: in vivo. Also on record: dose 20 mg/kg, time < 24 hrs, route po. Type of series: ADME, organism-based.
Series [7] can be described thus: Tmax in CD-1 mouse at 20 mg/kg, po administered as DMSO/PEG400 formulation measured upto 24 hrs by LC-MS/MS analysis. Type of series: ADME, organism-based. The following applies: in vivo.
Series [8] can be described thus: Half life in CD-1 mouse at 20 mg/kg, po administered as DMSO/PEG400 formulation measured upto 24 hrs by LC-MS/MS analysis. Format: ADME, organism-based. The following applies: in vivo.
The nature of series [9]: Oral bioavailability in CD-1 mouse at 20 mg/kg administered as DMSO/PEG400 formulation measured upto 24 hrs by LC-MS/MS analysis. Type of series: ADME, organism-based. The following applies: in vivo.
Series [10] in a line: Volume of distribution at steady state in CD-1 mouse at 5 mg/kg, iv administered as DMSO/PEG400 formulation measured upto 24 hrs by LC-MS/MS analysis. The following applies: in vivo, read-out: Vdss. Type of series: ADME, organism-based.
Series [11] can be described thus: Clearance in CD-1 mouse at 5 mg/kg, iv administered as DMSO/PEG400 formulation measured upto 24 hrs by LC-MS/MS analysis. Type of series: ADME, organism-based. The following applies: in vivo.
Series [12] in a line: Half life in CD-1 mouse at 5 mg/kg, iv administered as DMSO/PEG400 formulation measured upto 24 hrs by LC-MS/MS analysis. Format: ADME, organism-based. To be noted: in vivo.
Series [13] is described as follows: AUC(0 to 24 hrs) in CD-1 mouse at 20 mg/kg, po administered as DMSO/PEG400 formulation measured upto 24 hrs by LC-MS/MS analysis. Type of series: ADME, organism-based. To be noted: in vivo. More on the design: dose 20 mg/kg, time < 24 hrs, route po.
Series [14] relates to Trypanosoma cruzi. As to the kind of experiment: Antitrypanosomal activity against bioluminescent Trypanosoma cruzi CL Brener trypomastigotes infected in BALB/c mouse assessed as reduction in parasite burden at 50 mg/kg, po administered twice daily for 5 days starting from 14 days post infection and measured on 36 days post infection. Format: functional. More on the design: scale not given: the % may be the effect or the level left. The following applies: time 22 day.

Series [15] has as its system Mycobacterium tuberculosis. Briefly: Antimycobacterial activity against Mycobacterium tuberculosis H37Ra ATCC 25177 assessed as bacterial growth inhibition incubated for 6 days under normoxic condition by resazurin microtiter assay. Type of series: functional. To be noted: H37Ra ATCC 25177, 144 h, time 6 day. (In general: The colour change of resazurin is a common sign of viable cells or microbes.)

In another series the test system is Mycobacterium avium. Briefly: Antimycobacterial activity against Mycobacterium avium ATCC 25291 assessed as bacterial growth inhibition incubated for 6 days under normoxic condition by resazurin microtiter assay. The following applies: ATCC 25291, 144 h, time 6 day. Type of series: functional.
Series [16] relates to Mycolicibacterium smegmatis. As to the kind of experiment: Antimycobacterial activity against Mycobacterium smegmatis mc2155 ATCC 700084 assessed as bacterial growth inhibition incubated for 24 hrs under normoxic condition by resazurin microtiter assay. Type of series: functional.
The test system of series [17] is Mycobacterium tuberculosis. As to the kind of experiment: Substrate activity at Mycobacterium tuberculosis Ddn expressed in Escherichia coli BL21 (DE3) assessed as oxidation of F420H2 by measuring Kcat by spectrophotometric analysis.
Series [18] deals with Mycobacterium tuberculosis. Briefly: Substrate activity at Mycobacterium tuberculosis Ddn expressed in Escherichia coli BL21 (DE3) assessed as oxidation of F420H2 by measuring Km by spectrophotometric analysis.
For series [19], the system named is Mycobacterium tuberculosis. Briefly: Substrate activity at Mycobacterium tuberculosis Ddn expressed in Escherichia coli BL21 (DE3) assessed as oxidation of F420H2 by measuring Kcat/Km by spectrophotometric analysis.
Series [20] is described as follows: Cmax in CD-1 mouse at 25 mg/kg, po measured upto 48 hrs by LC/MS/MS analysis. Type of series: ADME, organism-based. Also on record: time < 48 hrs, dose 25 mg/kg, route po. The following applies: in vivo.
Series [21] in a line: AUC (0 to last) in CD-1 mouse at 25 mg/kg, po measured upto 48 hrs by LC/MS/MS analysis. Type of series: ADME, organism-based. Also on record: dose 25 mg/kg, time < 48 hrs, route po. The following applies: in vivo.
Series [22] can be described thus: Tmax in CD-1 mouse at 25 mg/kg, po measured upto 48 hrs by LC/MS/MS analysis. Type of series: ADME, organism-based. To be noted: in vivo.
Series [23] is described as follows: Half life in CD-1 mouse at 25 mg/kg, po measured upto 48 hrs by LC/MS/MS analysis. Format: ADME, organism-based. The following applies: in vivo.
A short description of series [24]: Oral bioavailability in CD-1 mouse at 25 mg/kg measured upto 48 hrs by LC/MS/MS analysis. Type of series: ADME, organism-based. To be noted: in vivo.
Series [25] in a line: Volume of distribution at steady state in CD-1 mouse at 10 mg/kg, iv measured upto 48 hrs by LC/MS/MS analysis. Type of series: ADME, organism-based. The following applies: in vivo, read-out: Vdss.
Series [26] is described as follows: Clearance in CD-1 mouse at 10 mg/kg, iv measured upto 48 hrs by LC/MS/MS analysis. Format: ADME, organism-based. To be noted: in vivo.
A short description of series [27]: Half life in CD-1 mouse at 10 mg/kg, iv measured upto 48 hrs by LC/MS/MS analysis. To be noted: in vivo. Type of series: ADME, organism-based.

The term IC50 denotes the concentration that gives 50% inhibition. Usually IC90 stands for the concentration at which the effect reaches the 90% level. In general, CC50 refers to the concentration at which the toxic effect on the cells reaches its halfway point. On to `O=C(Cn1ccnc1[N+](=O)[O-])NCc1ccccc1` [BENZNIDAZOLE], for which the half-inhibitory concentration (IC50) in the series on Trypanosoma cruzi [1] (NIH3T3, 48 h) is 7.6 µM. In addition, the concentration for an effect of 90% (IC90) in the series with Trypanosoma cruzi [1] (NIH3T3, time 48 hrs) stood at 28 µM. Further, the figures for the Activity in the series with Trypanosoma cruzi [2] and with Trypanosoma cruzi [5] were 100% and 99.3%, respectively. In series [3], this compound displayed a CC50 of over 127 µM. Besides, the selectivity ratio in series [4] is over 17.
One may read the Cmax as the peak of the concentration-time curve. As a reminder, the Tmax is the time from dosing to the highest level. One may read the half-life as how long it takes for the measured level to halve. As a reminder, the bioavailability is the share of a dose that reaches the circulation, judged against a reference dose that is usually intravenous. By clearance is commonly meant a measure of how efficiently the substance is removed, as volume per time. By AUC(0-t) is commonly meant the area under the concentration-time curve up to a stated or last time point. Turning to `O=c1c2nc([N+](=O)[O-])cn2ccn1Cc1ccc(-c2cccnc2)cc1`, the highest level in series [6] (Cmax) was 4.5 µg/mL. Moreover, the time of peak concentration (Tmax) in series [7] was 0.67 h. The half-life was 0.77 h in series [8] and 1.5 h in series [12]. In addition, the bioavailability in series [9] stood at 92%. The Vd in [10] was 2.6 L/kg. This compound also came in with a clearance in series [11] of 1.37 L/h/kg. The exposure AUC(0-t) at 24 h in [13] was 9.26 µg·h/mL. In the series on Trypanosoma cruzi [14], the Activity is given as 99.4%.
One may read the MIC as the smallest concentration in the dilution series that meets the test's criterion for growth inhibition. One may read the kcat as the number of substrate molecules converted per active site and unit of time at saturation. Usually Km stands for the substrate concentration at which the rate is half of its maximum. The kcat/Km is the second-order rate constant that governs catalysis at low substrate concentration. On to `O=[N+]([O-])c1cn2c(n1)OC[C@@H](OCc1ccc(OC(F)(F)F)cc1)C2` [PRETOMANID], for which the MIC in [15] was at most 0.016 mg/L; in the series on Mycobacterium avium, over 32 mg/L; in series [16] it was over 32 mg/L. Besides, the catalytic constant (kcat) in series [17] was 9.3 10^-3/s. The Km in series [18] amounted to 7.3 µM. Further, the kcat/Km in [19] turned out to be 1260 M⁻¹ s⁻¹. In [20], the highest level (Cmax) was 6 µg/mL. For the same compound, in series [21], the AUC(0-t) at 48 h was 50.9 µg·h/mL. For the same compound, in series [22], the time to peak (Tmax) is 2 h. Also, the values for the half-life in [23] and in series [27] were 2.7 h and 1.6 h, respectively. The same compound yielded a bioavailability in [24] of 100%. Moreover, in series [25], the Vd stood at 1.6 L/kg. The compound further came in with a clearance in series [26] of 0.726 L/h/kg.
